Assay results taken from patent US20240174690A1, “ANNULATED 2-AMINO-3-CYANO THIOPHENES AND DERIVATIVES FOR THE TREATMENT OF CANCER” (BOEHRINGER INGELHEIM INTERNATIONAL GMBH, priority 2021, published 2024).
Converted amounts (≈) assume the structure as drawn. Like-named read-outs stand apart in the source and are kept apart here.

Key:
[1] = tested on: AsPC-1 cells; experiment: AsPC-1 CTG proliferation assay (120 h) (pancreatic cancer, G12D); format: cell-based; details: Homo sapiens, ASPC1
Procedure, shortened: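 AsPC-1 cells (KRAS G12D), 2000/well in RPMI with 10% FCS, seeded overnight, then treated with compound for 120 h at 37 °C. Viability by CellTiter-Glo luminescence as percent of DMSO control. IC50 from a four-parameter non-linear fit.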

[2] = tested on: LOVO cells; experiment: LOVO CTG proliferation assay (120 h) (CRC, G13D); format: cell-based; details: Homo sapiens, CTG 120 h
Procedure, shortened: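 LOVO cells, 1000 per well in DMEM + 10% FCS, were plated overnight and then dosed with compound from DMSO stock. After 120 h at 37 °C, viability was read by CellTiter-Glo luminescence as a percentage of DMSO controls. IC50 was derived by four-parameter non-linear regression.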

[3] = Solubility measurement (DMSO solution method), McIlvaine buffer pH 4.5 or 6.8; format: physicochemical; details: aqueous buffer, kinetic from dmso stock, DMSO stock diluted to 250 μM, 24 h shaking at ambient temperature
Procedure, shortened: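 DMSO stock diluted into McIlvaine buffer, pH 4.5 or 6.8, to 250 µM final, shaken 24 h at ambient temperature. Precipitate removed by filtration; filtrate quantified by LC-UV against a fully dissolved reference in acetonitrile/water 1:1.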

[4] = tested on: KRAS G12C-dependent Ba/F3 cells; experiment: Ba/F3 proliferation assay, KRAS G12C; format: cell-based; details: Mus musculus, BaF3, 72 h, AlamarBlue
Procedure, shortened: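 Transforming KRAS G12 mutants replaced IL-3 dependence in retrovirally engineered Ba/F3 cells, with puromycin omitted about ten days before testing. Growth under compound was quantified with an AlamarBlue fluorescent viability stain, in duplicate, by curve fitting.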

[5] = McIlvaine buffer pH 4.5, read-out: solubility pH 4.5
[6] = McIlvaine buffer pH 6.8, read-out: solubility pH 6.8

Compound | IC50 [1] | IC50 [2] | solubility at 24 h [3, 5] | solubility at 24 h [3, 6] | IC50 [4]
C[C@H](Oc1cc(N2CC3CCC(C2)N3)nc(-c2noc3c2CCC[C@@]32CCCc3sc(N)c(C#N)c32)n1)[C@@H]1CCCN1C [II-34] | 1420 nM | 2400 nM | > 146 µg/mL | 114 µg/mL (≈ 190 µM) | 527 nM
C[C@H](Oc1cc(-n2ccnn2)nc(-c2onc3c2CCC[C@@]32CCCc3sc(N)c(C#N)c32)n1)[C@@H]1CCCN1C [I-32] | 4440 nM | 159 nM | 100 µg/mL (≈ 179 µM) | 14 µg/mL (≈ 25.1 µM) | 3 nM
C[C@H](Oc1cc(-n2ccc(C(=O)N[C@@H]3CCOC3)n2)nc(-c2onc3c2CCC[C@@]32CCCc3sc(N)c(C#N)c32)n1)[C@@H]1CCCN1C [I-56] | 695 nM | 23 nM | 108 µg/mL (≈ 161 µM) | 97 µg/mL (≈ 145 µM) | 3 nM
CO[C@@H]1C[C@@H]([C@H](C)Oc2cc(-c3ccn(C)n3)nc(-c3onc4c3CCC[C@@]43CCCc4sc(N)c(C#N)c43)n2)N(C)C1 [I-23] | 8160 nM | 79 nM | 106 µg/mL (≈ 176 µM) | < 1 µg/mL | 10 nM
C[C@H](Oc1cc(-c2ccn(C3COC3)n2)nc(-c2onc3c2CCC[C@@]32CCCc3sc(N)c(C#N)c32)n1)[C@@H]1CCCN1C [I-34] | 4150 nM | 161 nM | > 135 µg/mL | 92 µg/mL (≈ 150 µM) | 7 nM
CO[C@H]1CCN(C)[C@@H]1[C@H](C)Oc1cc(-n2ccc(C(=O)N[C@@H]3CCOC3)n2)nc(-c2onc3c2CCC[C@@]32CCCc3sc(N)c(C#N)c32)n1 [I-53] | 414 nM | 29 nM | > 152 µg/mL | 5 µg/mL (≈ 7.14 µM) | 2 nM
CO[C@H]1CCN(C)[C@@H]1[C@H](C)Oc1cc(N2CCNC3(CC3)C2)nc(-c2onc3c2CCC[C@@]32CCCc3sc(N)c(C#N)c32)n1 [I-49] | 20 nM | 223 nM | > 154 µg/mL | 43 µg/mL (≈ 68.2 µM) | 130 nM
C[C@H](Oc1cc(-c2cnsc2)nc(-c2onc3c2CCC[C@@]32CCCc3sc(N)c(C#N)c32)n1)[C@@H]1CCCN1C [I-27] | 2120 nM | 265 nM | 67 µg/mL (≈ 117 µM) | 1 µg/mL (≈ 1.74 µM) | 18 nM
COCCNC(=O)c1ccn(-c2cc(O[C@@H](C)[C@@H]3CCCN3C)nc(-c3onc4c3CCC[C@@]43CCCc4sc(N)c(C#N)c43)n2)n1 [I-58] | 696 nM | 29 nM | > 128 µg/mL | 94 µg/mL (≈ 143 µM) | 4 nM
COCCNC(=O)c1ccn(-c2cc(O[C@@H](C)[C@@H]3[C@@H](OC)CCN3C)nc(-c3onc4c3CCC[C@@]43CCCc4sc(N)c(C#N)c43)n2)n1 [I-55] | 565 nM | 39 nM | > 162 µg/mL | 5 µg/mL (≈ 7.27 µM) | 2 nM
C[C@H](NC(=O)c1ccn(-c2cc(O[C@@H](C)[C@@H]3CCCN3C)nc(-c3onc4c3CCC[C@@]43CCCc4sc(N)c(C#N)c43)n2)n1)c1ccccn1 [I-59] | 444 nM | 22 nM | > 150 µg/mL | 15 µg/mL (≈ 21.3 µM) | 2 nM
CO[C@@H]1C[C@@H]([C@H](C)Oc2cc(N3CCN(C)C4(CC4)C3)nc(-c3onc4c3CCC[C@@]43CCCc4sc(N)c(C#N)c43)n2)N(C)C1 [I-50] | 115 nM | 439 nM | > 139 µg/mL | 95 µg/mL (≈ 147 µM) | 448 nM

More lines, now with the values ahead:

IC50 [1] | IC50 [2] | solubility at 24 h [3, 5] | solubility at 24 h [3, 6] | IC50 [4] | Compound
1030 nM | 158 nM | 83 µg/mL (≈ 135 µM) | 33 µg/mL (≈ 53.8 µM) | 2 nM | CNC(=O)c1ccn(-c2cc(O[C@@H](C)[C@@H]3CCCN3C)nc(-c3noc4c3CCC[C@@]43CCCc4sc(N)c(C#N)c43)n2)n1 [II-20]
870 nM | 21 nM | 89 µg/mL (≈ 136 µM) | < 1 µg/mL | 5 nM | C[C@H](Oc1cc(-n2ccc(C(=O)N3CCCC3)n2)nc(-c2noc3c2CCC[C@@]32CCCc3sc(N)c(C#N)c32)n1)[C@@H]1CCCN1C [II-19]
59 nM | 493 nM | > 150 µg/mL | < 1 µg/mL | 271 nM | [2H]C([2H])([2H])N1C[C@H](F)C[C@H]1[C@H](C)Oc1cc(N2CCN(C)C3(CC3)C2)nc(-c2noc3c2CCC[C@@]32CCCc3sc(N)c(C#N)c32)n1 [II-209]
1490 nM | 736 nM | > 164 µg/mL | > 149 µg/mL | 724 nM | C[C@H](Oc1cc(N2CCC(N(C)C)CC2)nc(-c2noc3c2CCC[C@@]32CCCc3sc(N)c(C#N)c32)n1)[C@@H]1CCCN1C [II-48]
385 nM | 8320 nM | > 121 µg/mL | 117 µg/mL (≈ 194 µM) | 474 nM | C[C@H](Oc1cc(N2CCNC(C)(C)C2)nc(-c2noc3c2CCC[C@@]32CCCc3sc(N)c(C#N)c32)n1)[C@@H]1CCCN1C [II-32]
261 nM | 508 nM | > 140 µg/mL | > 133 µg/mL | 381 nM | C[C@H](Oc1cc(N2CCNC3(CCC3)C2)nc(-c2noc3c2CCC[C@@]32CCCc3sc(N)c(C#N)c32)n1)[C@@H]1CCCN1C [II-40]
2380 nM | > 25000 nM | > 136 µg/mL | > 125 µg/mL | 1050 nM | C[C@H]1CN(C)CCCN1c1cc(N2CCN(C)CC2)nc(-c2noc3c2CCC[C@@]32CCCc3sc(N)c(C#N)c32)n1 [II-30]
2310 nM | 6600 nM | > 135 µg/mL | > 118 µg/mL | 606 nM | C[C@H](Oc1cc(N2CCNCC2)nc(-c2noc3c2CCC[C@@]32CCCc3sc(N)c(C#N)c32)n1)[C@@H]1CCCN1C [II-45]
269 nM | 703 nM | > 138 µg/mL | > 130 µg/mL | 490 nM | C[C@H](Oc1cc(N2CCNC3(CCCC3)C2)nc(-c2noc3c2CCC[C@@]32CCCc3sc(N)c(C#N)c32)n1)[C@@H]1CCCN1C [II-41]
45 nM | 49 nM | > 146 µg/mL | 8 µg/mL (≈ 12.6 µM) | 429 nM | C[C@H](Oc1cc(N2C[C@H](C)NC3(CC3)C2)nc(-c2noc3c2CCC[C@@]32CCCc3sc(N)c(C#N)c32)n1)[C@@H]1C[C@@H](F)CN1C [II-18]
42 nM | 182 nM | > 151 µg/mL | > 133 µg/mL | 69 nM | C[C@H](Oc1cc(N2CCNC3(COC3)C2)nc(-c2noc3c2CCC[C@@]32CCCc3sc(N)c(C#N)c32)n1)[C@@H]1CCCN1C [II-31]
245 nM | 674 nM | > 151 µg/mL | 123 µg/mL (≈ 196 µM) | 293 nM | C[C@H](Oc1cc(N2CC[C@H](N3CCCC3)C2)nc(-c2noc3c2CCC[C@@]32CCCc3sc(N)c(C#N)c32)n1)[C@@H]1CCCN1C [II-14]
1430 nM | 383 nM | > 150 µg/mL | > 141 µg/mL | 241 nM | C[C@H](Oc1cc(N2C[C@@H](N(C)C)[C@@H](F)C2)nc(-c2noc3c2CCC[C@@]32CCCc3sc(N)c(C#N)c32)n1)[C@@H]1CCCN1C [II-11]
2730 nM | 680 nM | > 141 µg/mL | > 132 µg/mL | 301 nM | C[C@H](Oc1cc(N2CCN(CCO)CC2)nc(-c2noc3c2CCC[C@@]32CCCc3sc(N)c(C#N)c32)n1)[C@@H]1CCCN1C [II-8]
> 25000 nM | 7420 nM | < 1 µg/mL | < 1 µg/mL | 9220 nM | C[C@H](Oc1cc(-n2ccc(C(=O)O)n2)nc(-c2noc3c2CCC[C@@]32CCCc3sc(N)c(C#N)c32)n1)[C@@H]1CCCN1C [II-24]
1890 nM | 149 nM | 119 µg/mL (≈ 186 µM) | 9 µg/mL (≈ 14 µM) | 34 nM | C[C@H](Oc1cc(-c2ccn([C@H]3CCCOC3)n2)nc(-c2noc3c2CCC[C@@]32CCCc3sc(N)c(C#N)c32)n1)[C@@H]1CCCN1C [II-42]
2160 nM | 92 nM | > 115 µg/mL | 104 µg/mL (≈ 185 µM) | 28 nM | C[C@H](Oc1cc(C2CCCO2)nc(-c2noc3c2CCC[C@@]32CCCc3sc(N)c(C#N)c32)n1)[C@@H]1CCCN1C (stereo partly shown) [II-44]
2050 nM | 120 nM | 121 µg/mL (≈ 189 µM) | 9 µg/mL (≈ 14 µM) | 37 nM | C[C@H](Oc1cc(-c2ccn(C[C@@H]3CCCO3)n2)nc(-c2noc3c2CCC[C@@]32CCCc3sc(N)c(C#N)c32)n1)[C@@H]1CCCN1C [II-43]
1450 nM | 692 nM | > 152 µg/mL | > 152 µg/mL | 132 nM | C[C@H](Oc1cc([C@@H]2CCN(C)C2)nc(-c2noc3c2CCC[C@@]32CCCc3sc(N)c(C#N)c32)n1)[C@@H]1CCCN1C [II-37]
251 nM | 61 nM | > 139 µg/mL | > 147 µg/mL | 120 nM | C[C@H](Oc1cc(N2CCN(C)C3(COC3)C2)nc(-c2noc3c2CCC[C@@]32CCCc3sc(N)c(C#N)c32)n1)[C@@H]1CCCN1C [II-13]
